# “Also recorded” adds a separate entry of the source.
# Key:
# HCC1806 = experiment: Cell growth / viability, CellTiter-Glo, HCC1806; type: cell-based, human; details: 72 h of incubation
# MDA-MB-231 = experiment: Cell growth / viability, CellTiter-Glo, MDA-MB-231; type: cell-based, human; details: 72 h of incubation
# [1] = target: T1, human kidney-type glutaminase (hKGA124–669) (Homo sapiens, UniProt O94925); type: biochemical
# T1 sequence (O94925 124-669): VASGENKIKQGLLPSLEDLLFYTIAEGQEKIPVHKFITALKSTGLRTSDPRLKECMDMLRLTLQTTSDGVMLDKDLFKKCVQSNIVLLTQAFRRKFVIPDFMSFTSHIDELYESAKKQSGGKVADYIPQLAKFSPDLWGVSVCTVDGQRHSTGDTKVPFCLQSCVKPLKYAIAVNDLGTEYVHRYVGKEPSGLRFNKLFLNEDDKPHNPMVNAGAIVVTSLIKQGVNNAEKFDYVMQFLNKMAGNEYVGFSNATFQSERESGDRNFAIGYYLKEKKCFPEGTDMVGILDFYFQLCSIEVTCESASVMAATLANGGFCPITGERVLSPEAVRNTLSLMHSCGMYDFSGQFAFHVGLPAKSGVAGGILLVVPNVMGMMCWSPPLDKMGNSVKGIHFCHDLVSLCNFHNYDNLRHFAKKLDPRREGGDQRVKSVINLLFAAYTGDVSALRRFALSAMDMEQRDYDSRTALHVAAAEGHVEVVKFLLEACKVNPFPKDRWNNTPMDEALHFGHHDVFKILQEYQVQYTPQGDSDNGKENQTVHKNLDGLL
# [2] = tested on: GLS (both KGA and GAC isoenzymes) over GLS2; details: cited from earlier work
structure (smiles),measurement,setting,value
"O=C(Cc1ccccc1)Nc1nnc(CCCCc2nnc(NC(=O)Cc3ccc(O)cc3)s2)s1 [compound 2m, 4-hydroxy-N-[5-[4-[5-[(2-phenylacetyl)amino]-1,3,4-thiadiazol-2-yl]butyl]-1,3,4-thiadiazol-2-yl]-benzeneacetamide]",antiproliferative effect compared with BPTES and CB-839 in HCC1806,HCC1806,least effective
same,antiproliferative effect compared with BPTES and CB-839 in MDA-MB-231,MDA-MB-231,least effective
same,growth inhibition of MDA-MB-231,"MDA-MB-231; 1000 nM, P < 0.05 compared to controls",statistically significant growth inhibition
same,increase in GLS inhibitory potency from the corresponding acetoxy derivative 2j,[1],~8 fold
same,time dependency of GLS inhibitory potency (effect of preincubation time),[1]; Figure 2,no time-dependent increase in GLS inhibitory potency; also recorded: did not exhibit time-dependency
"[N-]=[N+]=CC(=O)CC[C@H](N)C(=O)O [DON, 6-Diazo-5-oxo-L-norleucine]",selectivity GLS versus GLS2,[2],inhibits both GLS and GLS2
O=C(Cc1ccc(O)cc1)Nc1nnc(CCCCc2nnc(NC(=O)Cc3ccc(O)cc3)s2)s1 [2q],higher GLS inhibitory potency compared with 2p,[1],10 fold

# Reference: article PMC4868099 (ACS Medicinal Chemistry Letters, 2016)
